Results as given in US20070117770A1, “Human ribosomal DNA (rDNA) and ribosomal RNA (rRNA) nucleic acids and uses thereof” (Cylene Pharmaceuticals, Inc., priority 2005, published 2007).

Assays:
Assay in all cases: Protein kinase inhibition assay
Assay type in all cases: biochemical
MELK(h) = MELK(h) (Homo sapiens, UniProt Q14680); details: read-out: percent residual activity of MELK(h)
Experimental: (§1) Certain compounds were tested for activity in protein kinase inhibition assays. All substrates were dissolved and diluted to working stocks in de-ionized water, apart from histone H1 (10× working stock in 20 mM MOPS pH 7.0), PDKtide (10× working stock in 50 mM Tris pH 7.0) ATF2 (which is typically stored at a 20× working stock in 50 mM Tris pH 7.5, 150 mM NaCl, 0.1 mM EGTA, 0.03% Brij-35, 50% glycerol, 1 mM benzamidine, 0.2 mM PMSF and 0.1% R-mercaptoethanol), KKLNRTLSFAEPG (SEQ ID NO:203) and RRRLSFAEPG (SEQ ID NO:204) (50 mM HEPES pH 7.4) and GGEEEEYFELVKKKK (SEQ ID NO:205) (20 mM MOPS pH 7.0). All kinases were pre-diluted to a 10× working concentration prior to addition into the assay. The composition of the dilution buffer for each kinase is detailed below.

Rsk4(h) = Rsk4(h) (Homo sapiens, UniProt Q9UK32); details: read-out: percent residual activity of Rsk4(h)
Experimental: as §1

LKB1(h) = LKB1(h) (Homo sapiens, UniProt Q15831); details: read-out: percent residual activity of LKB1(h)
Experimental: as §1

Mnk2(h) = Mnk2(h) (Homo sapiens, UniProt Q9HBH9); details: read-out: percent residual activity of Mnk2(h)
Experimental: as §1

MSSK1(h) = MSSK1(h) (Homo sapiens, UniProt Q9UPE1); details: read-out: percent residual activity of MSSK1(h)
Experimental: as §1

eEF-2K(h) = eEF-2K(h) (Homo sapiens, UniProt O00418); details: read-out: percent residual activity of eEF-2K(h)
Experimental: as §1

Mer(h) = Mer(h) (Homo sapiens, UniProt Q12866); details: read-out: percent residual activity of Mer(h)
Experimental: as §1

Flt4(h) = Flt4(h) (Homo sapiens, UniProt P35916); details: read-out: percent residual activity of Flt4(h)
Experimental: as §1

EphA7(h) = EphA7(h) (Homo sapiens, UniProt Q15375); details: read-out: percent residual activity of EphA7(h)
Experimental: as §1

DAPK1(h) = DAPK1(h) (Homo sapiens, UniProt P53355); details: read-out: percent residual activity of DAPK1(h)
Experimental: as §1

CaMKIIβ(h) = CaMKIIβ(h) (Homo sapiens, UniProt Q13554); details: read-out: percent residual activity of CaMKIIβ(h)
Experimental: as §1

WNK2(h) = WNK2(h) (Homo sapiens, UniProt Q9Y3S1); details: read-out: percent residual activity of WNK2(h)
Experimental: as §1

PTK5(h) = PTK5(h) (Homo sapiens, UniProt P42685); details: read-out: percent residual activity of PTK5(h)
Experimental: as §1

CK1γ1(h) = CK1γ1(h) (Homo sapiens, UniProt Q9HCP0); details: read-out: percent residual activity of CK1γ1(h)
Experimental: as §1

CDK9/cyclin T1(h) = CDK9/cyclin T1(h) (Homo sapiens, UniProt P50750); details: read-out: percent residual activity of CDK9/cyclin T1(h)
Experimental: as §1

PrKX(h) = PrKX(h) (Homo sapiens, UniProt P51817); details: read-out: percent residual activity of PrKX(h)
Experimental: as §1

SRPK2(h) = SRPK2(h) (Homo sapiens, UniProt P78362); details: read-out: percent residual activity of SRPK2(h)
Experimental: as §1

SAPK2a(T106M)(h) = SAPK2a(T106M)(h) (Homo sapiens, UniProt Q16539, T106M); details: read-out: percent residual activity of SAPK2a(T106M)(h)
Experimental: as §1

DAPK2(h) = DAPK2(h) (Homo sapiens, UniProt Q9UIK4); details: read-out: percent residual activity of DAPK2(h)
Experimental: as §1

CK1γ2(h) = CK1γ2(h) (Homo sapiens, UniProt P78368); details: read-out: percent residual activity of CK1γ2(h)
Experimental: as §1

TSSK1(h) = TSSK1(h) (Homo sapiens, UniProt Q9BXA7); details: read-out: percent residual activity of TSSK1(h)
Experimental: as §1

LOK(h) = LOK(h) (Homo sapiens, UniProt O94804); details: read-out: percent residual activity of LOK(h)
Experimental: as §1

LIMK1(h) = LIMK1(h) (Homo sapiens, UniProt P53667); details: read-out: percent residual activity of LIMK1(h)
Experimental: as §1

CLK3(h) = CLK3(h) (Homo sapiens, UniProt P49761); details: read-out: percent residual activity of CLK3(h)
Experimental: as §1

Pim-2(h) = Pim-2(h) (Homo sapiens, UniProt Q9P1W9); details: read-out: percent residual activity of Pim-2(h)
Experimental: as §1

BrSK2(h) = BrSK2(h) (Homo sapiens, UniProt Q8IWQ3); details: read-out: percent residual activity of BrSK2(h)
Experimental: as §1

EphA1(h) = EphA1(h) (Homo sapiens, UniProt P21709); details: read-out: percent residual activity of EphA1(h)
Experimental: as §1

MELK(h), sequence (Q14680 whole entry): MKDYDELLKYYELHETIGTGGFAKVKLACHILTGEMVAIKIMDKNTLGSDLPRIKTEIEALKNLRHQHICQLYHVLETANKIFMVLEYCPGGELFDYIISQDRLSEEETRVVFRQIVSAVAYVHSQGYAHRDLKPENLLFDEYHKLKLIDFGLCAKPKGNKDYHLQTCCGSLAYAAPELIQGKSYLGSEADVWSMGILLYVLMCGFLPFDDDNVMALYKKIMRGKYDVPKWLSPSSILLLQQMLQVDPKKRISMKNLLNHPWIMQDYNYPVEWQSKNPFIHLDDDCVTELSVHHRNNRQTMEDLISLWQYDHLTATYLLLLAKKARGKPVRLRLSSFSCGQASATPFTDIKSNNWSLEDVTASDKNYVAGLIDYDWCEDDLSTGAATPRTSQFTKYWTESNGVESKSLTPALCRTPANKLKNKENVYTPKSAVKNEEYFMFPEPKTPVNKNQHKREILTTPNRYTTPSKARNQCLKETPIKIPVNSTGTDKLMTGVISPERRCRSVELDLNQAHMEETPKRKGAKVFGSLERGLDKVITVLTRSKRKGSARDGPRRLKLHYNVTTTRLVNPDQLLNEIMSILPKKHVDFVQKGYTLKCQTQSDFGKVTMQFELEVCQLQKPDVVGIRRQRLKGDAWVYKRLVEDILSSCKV
PTK5(h), sequence (P42685 whole entry): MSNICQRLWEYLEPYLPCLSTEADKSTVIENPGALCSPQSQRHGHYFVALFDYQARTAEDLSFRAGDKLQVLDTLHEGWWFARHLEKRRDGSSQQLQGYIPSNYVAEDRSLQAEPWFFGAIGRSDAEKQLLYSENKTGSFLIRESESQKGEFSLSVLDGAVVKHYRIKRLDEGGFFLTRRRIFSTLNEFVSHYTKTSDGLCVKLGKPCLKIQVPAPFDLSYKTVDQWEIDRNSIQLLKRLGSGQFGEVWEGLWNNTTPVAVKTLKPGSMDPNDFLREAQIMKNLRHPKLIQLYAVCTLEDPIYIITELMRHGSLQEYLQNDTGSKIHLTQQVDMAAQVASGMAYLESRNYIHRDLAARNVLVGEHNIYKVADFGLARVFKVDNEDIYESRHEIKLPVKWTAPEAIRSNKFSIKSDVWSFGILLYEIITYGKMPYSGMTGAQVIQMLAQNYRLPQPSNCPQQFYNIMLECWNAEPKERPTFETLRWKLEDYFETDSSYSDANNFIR
LIMK1(h), sequence (P53667 whole entry): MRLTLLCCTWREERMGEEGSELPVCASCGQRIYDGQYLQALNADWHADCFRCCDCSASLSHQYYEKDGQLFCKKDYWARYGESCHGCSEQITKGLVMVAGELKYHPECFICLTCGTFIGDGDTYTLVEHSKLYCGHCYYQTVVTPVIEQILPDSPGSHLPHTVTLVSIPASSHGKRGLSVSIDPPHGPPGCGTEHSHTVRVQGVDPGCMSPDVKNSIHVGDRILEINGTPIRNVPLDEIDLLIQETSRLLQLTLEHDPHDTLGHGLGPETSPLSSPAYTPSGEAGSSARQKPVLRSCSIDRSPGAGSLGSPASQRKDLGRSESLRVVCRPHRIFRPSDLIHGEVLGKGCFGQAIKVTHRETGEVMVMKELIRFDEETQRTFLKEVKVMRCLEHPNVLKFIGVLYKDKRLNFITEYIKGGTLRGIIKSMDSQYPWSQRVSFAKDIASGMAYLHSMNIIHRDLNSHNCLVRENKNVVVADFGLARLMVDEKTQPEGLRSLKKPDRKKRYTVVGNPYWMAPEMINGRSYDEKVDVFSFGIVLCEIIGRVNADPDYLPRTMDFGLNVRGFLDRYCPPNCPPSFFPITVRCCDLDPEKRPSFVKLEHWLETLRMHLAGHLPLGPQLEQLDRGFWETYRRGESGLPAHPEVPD
PrKX(h), sequence (P51817 whole entry): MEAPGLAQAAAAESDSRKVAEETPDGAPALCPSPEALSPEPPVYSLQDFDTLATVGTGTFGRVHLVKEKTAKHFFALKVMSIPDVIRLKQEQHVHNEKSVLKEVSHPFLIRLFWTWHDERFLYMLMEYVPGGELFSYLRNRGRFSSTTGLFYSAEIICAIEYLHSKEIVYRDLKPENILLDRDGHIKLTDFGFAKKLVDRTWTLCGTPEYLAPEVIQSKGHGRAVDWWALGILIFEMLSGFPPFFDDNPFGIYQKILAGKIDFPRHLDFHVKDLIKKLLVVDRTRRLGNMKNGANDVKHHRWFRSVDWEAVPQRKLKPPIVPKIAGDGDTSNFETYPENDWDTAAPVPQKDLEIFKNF
SRPK2(h), sequence (P78362 whole entry): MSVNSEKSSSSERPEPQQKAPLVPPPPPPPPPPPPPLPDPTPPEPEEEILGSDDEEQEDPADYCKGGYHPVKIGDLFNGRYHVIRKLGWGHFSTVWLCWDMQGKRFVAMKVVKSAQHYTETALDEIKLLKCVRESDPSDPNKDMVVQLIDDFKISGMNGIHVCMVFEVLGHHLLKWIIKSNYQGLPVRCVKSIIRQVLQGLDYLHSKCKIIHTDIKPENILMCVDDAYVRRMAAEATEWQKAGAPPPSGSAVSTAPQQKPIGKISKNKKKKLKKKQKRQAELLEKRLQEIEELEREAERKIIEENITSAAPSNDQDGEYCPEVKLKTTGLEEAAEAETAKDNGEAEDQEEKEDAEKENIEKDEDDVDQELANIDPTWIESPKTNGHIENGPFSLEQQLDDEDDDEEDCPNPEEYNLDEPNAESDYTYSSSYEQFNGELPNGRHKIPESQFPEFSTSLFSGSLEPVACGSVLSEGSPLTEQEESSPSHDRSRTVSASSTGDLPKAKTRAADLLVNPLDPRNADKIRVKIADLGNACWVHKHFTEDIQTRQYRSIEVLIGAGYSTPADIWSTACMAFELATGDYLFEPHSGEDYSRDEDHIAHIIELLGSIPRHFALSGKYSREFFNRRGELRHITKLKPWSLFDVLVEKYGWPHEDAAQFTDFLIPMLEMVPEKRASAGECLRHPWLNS
Mer(h), sequence (Q12866 21-999): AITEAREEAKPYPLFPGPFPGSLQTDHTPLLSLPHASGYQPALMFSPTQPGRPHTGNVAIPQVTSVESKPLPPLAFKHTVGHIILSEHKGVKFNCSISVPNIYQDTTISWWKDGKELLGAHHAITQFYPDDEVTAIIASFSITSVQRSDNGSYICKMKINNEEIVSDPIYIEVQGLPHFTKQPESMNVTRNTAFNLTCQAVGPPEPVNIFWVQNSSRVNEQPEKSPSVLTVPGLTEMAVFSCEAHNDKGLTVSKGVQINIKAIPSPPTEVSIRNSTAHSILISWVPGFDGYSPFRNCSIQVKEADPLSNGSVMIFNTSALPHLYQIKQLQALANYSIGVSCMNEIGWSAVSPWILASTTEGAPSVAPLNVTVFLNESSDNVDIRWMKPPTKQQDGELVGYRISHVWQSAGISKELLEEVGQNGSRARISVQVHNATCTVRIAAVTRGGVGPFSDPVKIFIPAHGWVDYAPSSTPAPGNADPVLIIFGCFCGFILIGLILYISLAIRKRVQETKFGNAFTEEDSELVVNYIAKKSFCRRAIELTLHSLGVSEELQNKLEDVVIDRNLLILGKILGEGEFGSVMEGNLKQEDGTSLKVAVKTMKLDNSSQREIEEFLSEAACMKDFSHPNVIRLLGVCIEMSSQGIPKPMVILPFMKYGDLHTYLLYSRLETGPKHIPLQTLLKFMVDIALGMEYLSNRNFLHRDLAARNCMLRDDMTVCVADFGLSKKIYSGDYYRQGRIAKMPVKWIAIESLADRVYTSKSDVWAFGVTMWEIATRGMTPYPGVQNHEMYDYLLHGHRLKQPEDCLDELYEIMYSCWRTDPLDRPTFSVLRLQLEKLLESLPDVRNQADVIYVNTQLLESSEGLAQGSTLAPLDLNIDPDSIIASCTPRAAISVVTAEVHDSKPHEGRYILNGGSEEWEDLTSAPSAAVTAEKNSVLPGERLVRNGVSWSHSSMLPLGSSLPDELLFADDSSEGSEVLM
CK1γ1(h), sequence (Q9HCP0 whole entry): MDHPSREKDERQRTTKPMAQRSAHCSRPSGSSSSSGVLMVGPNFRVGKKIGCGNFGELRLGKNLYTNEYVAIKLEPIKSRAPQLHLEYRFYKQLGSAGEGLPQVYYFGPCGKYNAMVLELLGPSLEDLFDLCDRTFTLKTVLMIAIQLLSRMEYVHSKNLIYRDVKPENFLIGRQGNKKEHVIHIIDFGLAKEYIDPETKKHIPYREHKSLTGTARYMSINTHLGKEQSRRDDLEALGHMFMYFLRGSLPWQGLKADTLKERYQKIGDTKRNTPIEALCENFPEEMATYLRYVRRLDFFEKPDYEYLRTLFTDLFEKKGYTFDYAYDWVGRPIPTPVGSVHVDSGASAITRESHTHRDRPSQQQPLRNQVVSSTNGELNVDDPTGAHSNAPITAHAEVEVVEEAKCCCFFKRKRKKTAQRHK
SAPK2a(T106M)(h), sequence (Q16539 whole entry T106M): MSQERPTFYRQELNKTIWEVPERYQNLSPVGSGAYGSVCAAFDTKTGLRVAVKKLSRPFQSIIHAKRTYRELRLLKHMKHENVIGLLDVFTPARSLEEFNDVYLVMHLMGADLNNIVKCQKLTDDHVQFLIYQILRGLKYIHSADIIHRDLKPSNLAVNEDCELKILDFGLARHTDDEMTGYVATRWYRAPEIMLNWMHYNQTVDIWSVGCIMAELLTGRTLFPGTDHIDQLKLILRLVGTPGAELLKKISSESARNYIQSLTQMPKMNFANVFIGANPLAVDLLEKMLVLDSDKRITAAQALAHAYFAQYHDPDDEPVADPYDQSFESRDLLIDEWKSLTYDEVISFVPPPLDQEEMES
Pim-2(h), sequence (Q9P1W9 whole entry): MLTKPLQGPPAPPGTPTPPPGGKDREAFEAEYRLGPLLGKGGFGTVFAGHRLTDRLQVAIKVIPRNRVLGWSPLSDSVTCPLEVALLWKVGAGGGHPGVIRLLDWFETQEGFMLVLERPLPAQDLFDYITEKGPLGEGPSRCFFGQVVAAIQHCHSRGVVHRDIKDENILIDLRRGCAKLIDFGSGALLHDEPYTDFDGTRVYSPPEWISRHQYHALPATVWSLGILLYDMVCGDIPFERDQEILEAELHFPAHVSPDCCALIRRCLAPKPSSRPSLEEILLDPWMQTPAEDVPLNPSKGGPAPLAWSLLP

Row | remaining activity at 2.5 µM (MELK(h)) [%] | remaining activity at 2.5 µM (Rsk4(h)) [%] | remaining activity at 2.5 µM (LKB1(h)) [%] | remaining activity at 2.5 µM (Mnk2(h)) [%] | remaining activity at 2.5 µM (MSSK1(h)) [%] | remaining activity at 2.5 µM (eEF-2K(h)) [%] | remaining activity at 2.5 µM (Mer(h)) [%] | remaining activity at 2.5 µM (Flt4(h)) [%] | remaining activity at 2.5 µM (EphA7(h)) [%] | remaining activity at 2.5 µM (DAPK1(h)) [%] | remaining activity at 2.5 µM (CaMKIIβ(h)) [%] | remaining activity at 2.5 µM (WNK2(h)) [%] | remaining activity at 2.5 µM (PTK5(h)) [%] | remaining activity at 2.5 µM (CK1γ1(h)) [%] | remaining activity at 2.5 µM (CDK9/cyclin T1(h)) [%] | remaining activity at 2.5 µM (PrKX(h)) [%] | remaining activity at 2.5 µM (SRPK2(h)) [%] | remaining activity at 2.5 µM (SAPK2a(T106M)(h)) [%] | remaining activity at 2.5 µM (DAPK2(h)) [%] | remaining activity at 2.5 µM (CK1γ2(h)) [%] | Structure (SMILES) | other results
1 | 40 | 69 | 98 | 98 | 41 | 96 | 111 | 70 | 109 | 40 | 101 | 97 | 116 | 90 | 116 | 75 | 88 | 94 | 109 | 96 | CN1CCCC1CCNC(=O)c1cn2c3c(c(N4CCC(c5cnccn5)C4)c(F)cc3c1=O)Oc1cc3ccccc3cc1-2 (stereo not drawn) [Compound A-1] | remaining activity at 2.5 µM (TSSK1(h)): 98%; remaining activity at 2.5 µM (LOK(h)): 88%; remaining activity at 2.5 µM (LIMK1(h)): 97%; remaining activity at 2.5 µM (CLK3(h)): 84%; remaining activity at 2.5 µM (Pim-2(h)): 77%; remaining activity at 2.5 µM (BrSK2(h)): 96%; remaining activity at 2.5 µM (EphA1(h)): 69%
2 | 94 | 94 | 101 | 115 | 107 | 98 | 125 | 103 | 100 | 89 | 100 | 108 | 107 | 100 | 100 | 96 | 88 | 99 | 102 | 103 | CC(=O)N1CCN(c2ccc3c(=O)c(C(=O)NCCN4CCCC4)c4n(C)c5ccccc5n4c3n2)CC1 [Compound B-1] | remaining activity at 2.5 µM (TSSK1(h)): 107%; remaining activity at 2.5 µM (LOK(h)): 106%; remaining activity at 2.5 µM (LIMK1(h)): 100%; remaining activity at 2.5 µM (CLK3(h)): 96%; remaining activity at 2.5 µM (Pim-2(h)): 110%; remaining activity at 2.5 µM (BrSK2(h)): 96%; remaining activity at 2.5 µM (EphA1(h)): 96%
